Measurements from ChEMBL document CHEMBL2150993, “Substituted thiazoles VII. Synthesis and antitumor activity of certain 2-(substituted amino)-4-phenyl-1,3-thiazole analogs” (2012).

Tests used:
Type in all cases: functional
Details in all cases: at 10 µM
CCRF-CEM = test: Growth inhibition of human CCRF-CEM cells after 48 hrs by cell counting analysis
HL-60 = test: Growth inhibition of human HL60 cells after 48 hrs by cell counting analysis
K562 = test: Growth inhibition of human K562 cells after 48 hrs by cell counting analysis
RPMI-8226 = test: Growth inhibition of human RPMI8226 cells after 48 hrs by cell counting analysis
SR = test: Growth inhibition of human SR cells after 48 hrs by cell counting analysis
A549 = test: Growth inhibition of human A549 cells after 48 hrs by cell counting analysis
EKVX = test: Growth inhibition of human EKVX cells after 48 hrs by cell counting analysis
HOP-62 = test: Growth inhibition of human HOP62 cells after 48 hrs by cell counting analysis
HOP-92 = test: Growth inhibition of human HOP92 cells after 48 hrs by cell counting analysis
NCI-H226 = test: Growth inhibition of human NCI-H226 cells after 48 hrs by cell counting analysis
NCI-H23 = test: Growth inhibition of human NCI-H23 cells after 48 hrs by cell counting analysis
[1] = Growth inhibition of human NCI-322M cells after 48 hrs by cell counting analysis
NCI-H522 = test: Growth inhibition of human NCI-H522 cells after 48 hrs by cell counting analysis
HCC 2998 = test: Growth inhibition of human HCC2998 cells after 48 hrs by cell counting analysis
HCT-15 = test: Growth inhibition of human HCT15 cells after 48 hrs by cell counting analysis
HT-29 = test: Growth inhibition of human HT-29 cells after 48 hrs by cell counting analysis
KM12 = test: Growth inhibition of human KM12 cells after 48 hrs by cell counting analysis
SW-620 = test: Growth inhibition of human SW620 cells after 48 hrs by cell counting analysis
SF-268 = test: Growth inhibition of human SF268 cells after 48 hrs by cell counting analysis
SF-295 = test: Growth inhibition of human SF295 cells after 48 hrs by cell counting analysis
SF-539 = test: Growth inhibition of human SF539 cells after 48 hrs by cell counting analysis
SNB-19 = test: Growth inhibition of human SNB19 cells after 48 hrs by cell counting analysis
SNB-75 = test: Growth inhibition of human SNB75 cells after 48 hrs by cell counting analysis
U-251 = test: Growth inhibition of human U251 cells after 48 hrs by cell counting analysis
LOX IMVI = test: Growth inhibition of human LOXIMVI cells after 48 hrs by cell counting analysis
Malme-3M = test: Growth inhibition of human MALME-3M cells after 48 hrs by cell counting analysis
M14 = test: Growth inhibition of human M14 cells after 48 hrs by cell counting analysis
MDA-MB-435 = test: Growth inhibition of human MDA-MB-435 cells after 48 hrs by cell counting analysis
SK-MEL-2 = test: Growth inhibition of human SK-MEL-2 cells after 48 hrs by cell counting analysis
SK-MEL-28 = test: Growth inhibition of human SK-MEL-28 cells after 48 hrs by cell counting analysis
SK-MEL-5 = test: Growth inhibition of human SK-MEL-5 cells after 48 hrs by cell counting analysis
UACC-257 = test: Growth inhibition of human UACC257 cells after 48 hrs by cell counting analysis
UACC-62 = test: Growth inhibition of human UACC62 cells after 48 hrs by cell counting analysis
IGROV-1 = test: Growth inhibition of human IGROV1 cells after 48 hrs by cell counting analysis
OVCAR-3 = test: Growth inhibition of human OVCAR3 cells after 48 hrs by cell counting analysis
OVCAR-4 = test: Growth inhibition of human OVCAR4 cells after 48 hrs by cell counting analysis
OVCAR-5 = test: Growth inhibition of human OVCAR5 cells after 48 hrs by cell counting analysis
OVCAR-8 = test: Growth inhibition of human OVCAR8 cells after 48 hrs by cell counting analysis
[2] = Growth inhibition of human NCI-ADR-RES cells after 48 hrs by cell counting analysis
SK-OV-3 = test: Growth inhibition of human SKOV3 cells after 48 hrs by cell counting analysis
ACHN = test: Growth inhibition of human ACHN cells after 48 hrs by cell counting analysis
CAKI-1 = test: Growth inhibition of human Caki1 cells after 48 hrs by cell counting analysis
RXF 393 = test: Growth inhibition of human RXF393 cells after 48 hrs by cell counting analysis
SN12C = test: Growth inhibition of human SN12C cells after 48 hrs by cell counting analysis
TK-10 = test: Growth inhibition of human TK10 cells after 48 hrs by cell counting analysis
UO-31 = test: Growth inhibition of human UO31 cells after 48 hrs by cell counting analysis
PC-3 = test: Growth inhibition of human PC3 cells after 48 hrs by cell counting analysis
MCF7 = test: Growth inhibition of human MCF7 cells after 48 hrs by cell counting analysis
MDA-MB-231 = test: Growth inhibition of human MDA-MB-231 cells after 48 hrs by cell counting analysis
BT-549 = test: Growth inhibition of human BT549 cells after 48 hrs by cell counting analysis
T47D = test: Growth inhibition of human T47D cells after 48 hrs by cell counting analysis
MDA-MB-468 = test: Growth inhibition of human MDA-MB-468 cells after 48 hrs by cell counting analysis
MOLT-4 = test: Growth inhibition of human MOLT4 cells after 48 hrs by cell counting analysis
HCT-116 = test: Growth inhibition of human HCT116 cells after 48 hrs by cell counting analysis

With `CN1CCN(CCC(=O)Nc2nc(-c3ccc(Br)cc3)cs2)CC1` the “growth inhibition (GI)” value (CCRF-CEM) was 24.9%, the “growth inhibition (GI)” value (HL-60) was 37.7% and the “growth inhibition (GI)” value (K562) was 52.4%. For the same compound, the “growth inhibition (GI)” value (RPMI-8226) was 30.5%, the “growth inhibition (GI)” value (SR) was less than 10% and the “growth inhibition (GI)” value (A549) was 22.2%. For the same compound, the “growth inhibition (GI)” value (EKVX) was 10.8%, the “growth inhibition (GI)” value (HOP-62) was 25% and the “growth inhibition (GI)” value (HOP-92) was 42.7%. The “growth inhibition (GI)” value (NCI-H226) was 19.1%, the “growth inhibition (GI)” value (NCI-H23) was 26% and the “growth inhibition (GI)” value [1] was 17.2%. For the same compound, the “growth inhibition (GI)” value (NCI-H522) was 28.5%, the “growth inhibition (GI)” value (HCC 2998) was less than 10% and the “growth inhibition (GI)” value (HCT-15) was 42.6%. For the same compound, the “growth inhibition (GI)” value (HT-29) was 80.4%, the “growth inhibition (GI)” value (KM12) was less than 10% and the “growth inhibition (GI)” value (SW-620) was less than 10%. For the same compound, the “growth inhibition (GI)” value (SF-268) was 12.8%, the “growth inhibition (GI)” value (SF-295) was 14.4% and the “growth inhibition (GI)” value (SF-539) was 31.4%. The “growth inhibition (GI)” value (SNB-19) was 20.9%, the “growth inhibition (GI)” value (SNB-75) was 47.9% and the “growth inhibition (GI)” value (U-251) was 33.6%. The “growth inhibition (GI)” value (LOX IMVI) was 31.8%, the “growth inhibition (GI)” value (Malme-3M) was 24.6% and the “growth inhibition (GI)” value (M14) was 33.7%. For the same compound, the “growth inhibition (GI)” value (MDA-MB-435) was 50.6%, the “growth inhibition (GI)” value (SK-MEL-2) was less than 10% and the “growth inhibition (GI)” value (SK-MEL-28) was 23.4%. The “growth inhibition (GI)” value (SK-MEL-5) was 76.2%, the “growth inhibition (GI)” value (UACC-257) was 36.4% and the “growth inhibition (GI)” value (UACC-62) was 71.6%. The “growth inhibition (GI)” value (IGROV-1) was 20.4%, the “growth inhibition (GI)” value (OVCAR-3) was less than 10% and the “growth inhibition (GI)” value (OVCAR-4) was less than 10%. For the same compound, the “growth inhibition (GI)” value (OVCAR-5) was 15.6%, the “growth inhibition (GI)” value (OVCAR-8) was less than 10% and the “growth inhibition (GI)” value [2] was 22.9%. The “growth inhibition (GI)” value (SK-OV-3) was less than 10%, the “growth inhibition (GI)” value (ACHN) was 15.9% and the “growth inhibition (GI)” value (CAKI-1) was 30.2%. The “growth inhibition (GI)” value (RXF 393) was 38.1%, the “growth inhibition (GI)” value (SN12C) was 31.9% and the “growth inhibition (GI)” value (TK-10) was 22.5%. For the same compound, the “growth inhibition (GI)” value (UO-31) was 50.8%, the “growth inhibition (GI)” value (PC-3) was 24.6% and the “growth inhibition (GI)” value (MCF7) was 28.8%. The “growth inhibition (GI)” value (MDA-MB-231) was 64.3%, the “growth inhibition (GI)” value (BT-549) was 32.5% and the “growth inhibition (GI)” value (T47D) was 34.9%. The “growth inhibition (GI)” value (MDA-MB-468) was 48.7%, the “growth inhibition (GI)” value (MOLT-4) was 38.1% and the “growth inhibition (GI)” value (HCT-116) was 42.5%.
